Columns and labels:
[1] = biological target: T1, serpentine synthase (SS, CrSS) (Catharanthus roseus, UniProt A0A8F5R546); experiment: LC-MS of product alstonine, yeast cultures expressing CrSS and yeast microsomes; format: biochemical; conditions: 30 uM substrate; microsomes: 150 uM NADPH, HEPES-NaOH pH 7.5, 30 C, 60 min; AaCPR co-expressed
T1 construct: predicted TM helix aa 7-24 FWSLPAIALLQVFLFFLF; 6HIS version (in planta) about 59 kDa
T1 sequence (A0A8F5R546 1-511): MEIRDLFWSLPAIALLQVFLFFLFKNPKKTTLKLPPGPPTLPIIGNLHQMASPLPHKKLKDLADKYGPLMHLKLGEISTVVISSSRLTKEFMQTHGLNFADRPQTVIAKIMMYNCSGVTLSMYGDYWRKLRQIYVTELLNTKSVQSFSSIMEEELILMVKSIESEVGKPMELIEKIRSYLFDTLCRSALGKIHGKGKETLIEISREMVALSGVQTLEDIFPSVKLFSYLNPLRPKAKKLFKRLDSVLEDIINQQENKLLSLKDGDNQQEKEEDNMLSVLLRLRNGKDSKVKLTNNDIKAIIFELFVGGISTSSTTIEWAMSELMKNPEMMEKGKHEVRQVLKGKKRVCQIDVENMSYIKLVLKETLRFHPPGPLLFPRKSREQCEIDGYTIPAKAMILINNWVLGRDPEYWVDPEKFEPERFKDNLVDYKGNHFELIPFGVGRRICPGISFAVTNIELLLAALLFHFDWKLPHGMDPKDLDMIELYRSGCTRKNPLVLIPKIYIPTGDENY

[2] = biological target: T1, serpentine synthase (SS, CrSS); experiment: LC-MS of product serpentine, yeast cultures expressing CrSS and yeast microsomes; format: biochemical; conditions: 30 uM substrate; microsomes: 150 uM NADPH, HEPES-NaOH pH 7.5, 30 C, 60 min; AaCPR co-expressed

SMILES | LC-MS of product alstonine, yeast cultures expressing CrSS and yeast microsomes [1] | LC-MS of product serpentine, yeast cultures expressing CrSS and yeast microsomes [2]
COC(=O)C1=CO[C@@H](C)[C@@H]2CN3CCc4c([nH]c5ccccc45)[C@@H]3C[C@H]12 [THA] | this cytochrome P450 could also produce alstonine from THA | –
COC(=O)C1=CO[C@@H](C)[C@H]2CN3CCc4c([nH]c5ccccc45)[C@@H]3C[C@H]12 [ajmalicine] | – | CrSS produced serpentine from ajmalicine when incubated in the media of yeast cultures expressing CrSS

Reference: publication PMC8491018, “Improved virus-induced gene silencing allows discovery of a serpentine synthase gene in Catharanthus roseus” (Plant Physiology, 2021)
